The source of these data is US8063072B2 (Roche Palo Alto LLC, priority 2009, dated 2011).

Structures are written as SMILES.

The target in data set [1] is T1, HCV polymerase (NS5B570n-Con1) (Hepatitis C virus genotype 1b, UniProt Q9WMX2).
T1 construct: contains a 21 amino acid deletion at the C-terminus relative to the full-length HCV polymerase; 6-histidine (His6) (N); made in house; host or cells: E. coli BL21(DE) pLysS, plasmid pET17b
The data set can be described thus: HCV NS5B RNA polymerase activity. The class given is biochemical, HCV Con1 strain. How it is done: The enzymatic activity of HCV polymerase (NS5B570n-Con1) was measured as the incorporation of radiolabeled nucleotide monophosphates into acid insoluble RNA products. Unincorporated radiolabeled substrate was removed by filtration and scintillant was added to the washed and dried filter plate containing radiolabeled RNA product. The amount of RNA product generated by NS5B570-Con1 at the end of the reaction was directly proportional to the amount of light emitted by the scintillant.
The N-terminal 6-histidine tagged HCV polymerase, derived from HCV Con1 strain, genotype 1b (NS5B570n-Con1) contains a 21 amino acid deletion at the C-terminus relative to the full-length HCV polymerase and was purified from E. coli strain BL21(DE) pLysS. The construct, containing the coding sequence of HCV NS5B Con1 (GenBank accession number AJ242654) was inserted into the plasmid construct pET17b, downstream of a T7 promoter expression cassette and transformed into E. coli. A single colony was grown overnight as a starter culture and later used inoculate 10 L of LB media supplemented with 100 μg/mL ampicillin at 37° C. Protein expression was induced by the addition of 0.25 mM isopropyl-β-D-thiogalactopyranoside (IPTG) when optical density at […] of the culture was between 0.6 and 0.8 and cells were harvested after 16 to 18 h at 30° C. NS5B570n-Con1 was purified to homogeneity using a three-step protocol including subsequent column chromatography on Ni-NTA, SP-Sepharose HP and Superdex 75 resins.
Each 50 μL enzymatic reaction contained 20 nM RNA template derived from the complementary sequence of the Internal Ribosome Entry Site (cIRES), 20 nM NS5B570n-Con1 enzyme, 0.5 μCi of tritiated UTP (Perkin Elmer catalog no. TRK-412; specific activity: 30 to 60 Ci/mmol; stock solution concentration from 7.5×10^-5 M to 20.6×10^-6 M), 1 μM each ATP, CTP, and GTP, 40 mM Tris-HCl pH 8.0, 40 mM NaCl, 4 mM DTT (dithiothreitol), 4 mM MgCl2, and 5 μl of compound serial diluted in DMSO. Reaction mixtures were assembled in 96-well filter plates (cat #MADVNOB, Millipore Co.) and incubated for 2 h at 30° C. Reactions were stopped by addition of 10% final (v/v) trichloroacetic acid and incubated for 40 min at 4° C. Reactions were filtered, washed with 8 reaction volumes of 10% (v/v) trichloroacetic acetic acid, 4 reaction volumes of 70% (v/v) ethanol, air dried, and 25 μl of scintillant (Microscint 20, Perkin-Elmer) was added to each reaction well.
The amount of light emitted from the scintillant was converted to counts per minute (CPM) on a Topcount® plate reader (Perkin-Elmer, Energy Range: Low, Efficiency Mode: Normal, Count Time: 1 min, Background Subtract: none, Cross talk reduction: Off).
Data was analyzed in Excel® (Microsoft) and ActivityBase® (Idbs®). The reaction in the absence of enzyme was used to determine the background signal, which was subtracted from the enzymatic reactions. Positive control reactions were performed in the absence of compound, from which the background corrected activity was set as 100% polymerase activity. All data was expressed as a percentage of the positive control. The compound concentration at which the enzyme-catalyzed rate of RNA synthesis was reduced by 50% (IC50) was calculated by fitting equation (i) to the data where“Y”
[formula] corresponds to the relative enzyme activity (in %), “% Min” is the residual relative activity at saturating compound concentration, “% Max” is the relative maximum enzymatic activity, “X” corresponds to the compound concentration, and “S” is the Hill coefficient (or slope).

The next data set can be described thus: in vitro. The note with it: human.
Data set [2] deals with genotype 1b replicon in HCV replicon cells (2209-23). The data set can be described thus: HCV replicon assay (Renilla luciferase reporter). The class given is cell-based, HCV genotype 1b. The note with it: Hepatitis C virus, 72 h; cell line 2209-23, three days incubation, luciferase readout.
For a further data set, the system named is HCV. To be noted: cited from earlier work.

The term IC50 denotes the concentration at which inhibition is half-maximal. High values mean weaker potency in that assay, low ones greater potency in that assay. In general, melting point refers to the temperature, or range, at which the solid turns liquid. As to `CC(C)(C)c1cc(/C=C/c2ccc(NS(C)(=O)=O)cc2)cc(-c2ccc[nH]c2=O)n1` [Compound I-1], the melting point fell in the range of 258 to 260 °C. For the same compound, the 50% inhibitory concentration (IC50) in data set [1] is 4 nM. This compound also returned a CC50 in “in vitro” of 15100 nM. Also, half-maximal inhibition in data set [2] (IC50) required 108 nM.
As to `CC(C)(C)c1cc(/C=C/c2ccc(NS(C)(=O)=O)cc2)c(O)c(-c2ccc[nH]c2=O)n1` [Compound I-2, N-{4-[(E)-2-(6-tert-Butyl-3-hydroxy-2′-oxo-1′,2′-dihydro-[2,3′]bipyridinyl-4-yl)-vinyl]-phenyl}-methanesulfonamide], the melting point is 178 to 180 °C. In data set [1], this compound gave an IC50 of 177 nM.
In turn, `CC(C)(C)c1cc(CCc2ccc(NS(C)(=O)=O)cc2)c(O)c(-c2ccc[nH]c2=O)n1` [Compound I-3, N-{4-[2-(6-tert-Butyl-3-hydroxy-2′-oxo-1′,2′-dihydro-[2,3′]bipyridinyl-4-yl)-ethyl]-phenyl}-methanesulfonamide] showed a melting point of 123 to 125 °C. For the same compound, half-maximal inhibition in data set [1] (IC50) was put at 27 nM. Besides, in data set [2], the IC50 came out at 566 nM.
With `COC(=O)c1cc(C(C)(C)C)nc(-c2ccc[nH]c2=O)c1C#N` [Compound I-4, 6-tert-Butyl-3-cyano-2′-oxo-1′,2′-dihydro-[2,3′]bipyridinyl-4-carboxylic acid methyl ester], the melting point lay within 228 to 230 °C. This compound showed an IC50 in data set [1] of 5640 nM.
The compound `CC(C)(C)c1cc(C(=O)N[C@H]2CC[C@H](NS(C)(=O)=O)CC2)c(C#N)c(-c2ccc[nH]c2=O)n1` [Compound I-5, 6-tert-Butyl-3-cyano-2′-oxo-1′,2′-dihydro-[2,3′]bipyridinyl-4-carboxylic acid (4-methanesulfonylamino-cyclohexyl)-amide] returned a melting point of 208 to 210 °C. This compound also returned a concentration for half-maximal inhibition (IC50) in data set [1] of 42 nM.
For the compound `CC(C)(C)c1cc(CCc2ccc(NS(C)(=O)=O)cc2)c(C#N)c(-c2ccc[nH]c2=O)n1` [Compound I-6, N-{4-[2-(6-tert-Butyl-3-cyano-2′-oxo-1′,2′-dihydro-[2,3′]bipyridinyl-4-yl)-ethyl]-phenyl}-methanesulfonamide], the concentration for half-maximal inhibition (IC50) in data set [1] amounted to 4 nM.
Turning to `CC(C)(C)c1nc(/C=C/c2ccc(NS(C)(=O)=O)cc2)cc(-c2ccc[nH]c2=O)n1` [Compound I-7, N-(4-{(E)-2-[2-tert-Butyl-6-(2-oxo-1,2-dihydro-pyridin-3-yl)-pyrimidin-4-yl]-vinyl}-phenyl)-methanesulfonamide], the melting point was in the range of 271 to 273 °C. This compound also had a concentration for half-maximal inhibition (IC50) in data set [1] of 10 nM.
As for `NC(=O)c1ncn([C@@H]2O[C@H](CO)[C@@H](O)[C@H]2O)n1` [ribavirin, 1-((2R,3R,4S,5R)-3,4-Dihydroxy-5-hydroxymethyl-tetrahydro-furan-2-yl)-1H-[1,2,4]triazole-3-carboxylic acid amide], the “effect on serum levels of HCV-RNA” value with HCV (monotherapy / sole treatment) is on record as “does not lower serum levels of HCV-RNA”. The “patients with serum amino transferase levels reduced to normal” value with HCV (monotherapy) is on record as 40%.
